Consider 8 compounds from ChEMBL document CHEMBL3588828, “A Selective, Cell-Permeable Nonphosphorylated Bicyclic Peptidyl Inhibitor against Peptidyl-Prolyl Isomerase Pin1” (J Med Chem, 2015).

As a reminder, the Kd is the equilibrium constant for the complex coming apart.

For data set [1], the target named is Peptidyl-prolyl cis-trans isomerase NIMA-interacting 1 (Homo sapiens, UniProt Q13526, S16A/Y23A). As to the kind of experiment: Binding affinity to N-terminal MBP fused and Texas-red-labeled full-length human Pin1 S16A/Y23A mutant expressed in Escherichia coli assessed as increase in fluorescence anisotropy by spectrofluorimetry. (Fluorescence polarisation rises when a labelled molecule tumbles more slowly, as on binding a larger partner.)

Data set [2] concerns HeLa. The experiment in a line: Drug uptake in human HeLa cells assessed as mean fluorescence intensity at 5 uM using FITC-labeled compound incubated for 2 hrs by flow cytometry (reference value: 86). It counts as ADME, cell-based. (In flow cytometry, cells or beads pass a laser one at a time.)
Data set [3] has as its system HeLa. The experiment in a line: Antiproliferative activity against human HeLa cells assessed as reduction in cell growth incubated for 72 hrs by MTT assay. It is filed as functional, cell-based. Conditions: hela. For orientation: Tetrazolium dyes change colour on reduction, which living cells bring about.
In data set [4] the test system is HeLa. As to the kind of experiment: Growth inhibition of human HeLa cells at 5 uM incubated for 3 days by MTT assay. It counts as functional.
For data set [5], the system named is Peptidyl-prolyl cis-trans isomerase NIMA-interacting 1 (Homo sapiens), Q13526 [S16A,Y23A]. As to the kind of experiment: Binding affinity to N-terminal MBP fused and Texas-red-labeled full-length human Pin1 S16A/Y23A mutant expressed in Escherichia coli assessed as increase in fluorescence anisotropy at 5 uM by spectrofluorimetry.
For data set [6], the target named is Peptidyl-prolyl cis-trans isomerase NIMA-interacting 1 (Homo sapiens) (UniProt Q13526). The experiment in a line: Inhibition of Pin1 in human HeLa cells assessed as increase in PML protein levels at 0.2 to 5 uM incubated for 2 hrs by Western blotting method relative to untreated control. It counts as cell-based.

SMILES strings stand for the structures. Activity calls are given as the source filed them. The calls are words filed in the database; no cut-off is given here.

As for `C[C@H](OP(=O)(O)O)[C@H]1NC(=O)CN(C)C(=O)[C@@H](C)NC(=O)[C@H](CCCCN)NC(=O)[C@H](Cc2ccc(O)cc2)NC(=O)[C@H](Cc2ccc3ccccc3c2)NC(=O)[C@H]2CCCCN2C1=O`, the Kd in data set [1] (read-out: Kd) was 240 nM. The Flu intensity in the data set on HeLa [2] was 193. Also, the IC50 entry with HeLa [3] was “Not Active”. Besides, in the data set on HeLa [4], the “growth inhibition (GI)” value is “inactive”.

On to `C[C@@H]1NC(=O)[C@H](CCCNC(=N)N)NC(=O)[C@H](Cc2ccc3ccccc3c2)NC(=O)[C@H]2CCCCN2C(=O)[C@@H]([C@H](C)O)NC(=O)[C@H](c2ccccc2)NC(=O)[C@H](Cc2cnc[nH]2)NC(=O)c2cc3cc(c2)C(=O)NC[C@H](NC(=O)[C@@H](C)NC1=O)C(=O)N[C@@H](Cc1ccccc1)C(=O)N[C@@H](Cc1ccc2ccccc2c1)C(=O)N[C@@H](CCCNC(=N)N)C(=O)N[C@@H](CCCNC(=N)N)C(=O)N[C@@H](CCCNC(=N)N)C(=O)N[C@@H](CCCNC(=N)N)C(=O)N[C@H](C(=O)N[C@@H](CCCCN)C(=O)O)CNC3=O`, for which the Activity in data set [5] is more than 50%. Also, the Kd in data set [1] (read-out: Kd) is 1400 nM.

On to `C[C@@H]1NC(=O)[C@H](CCCNC(=N)N)NC(=O)[C@H](Cc2ccc3ccccc3c2)NC(=O)[C@H]2CCCCN2C(=O)[C@@H]([C@H](C)O)NC(=O)CNC(=O)[C@H](Cc2ccccc2)N(C)C(=O)c2cc3cc(c2)C(=O)NC[C@H](NC(=O)[C@@H](C)NC1=O)C(=O)N[C@@H](Cc1ccccc1)C(=O)N[C@@H](Cc1ccc2ccccc2c1)C(=O)N[C@@H](CCCNC(=N)N)C(=O)N[C@@H](CCCNC(=N)N)C(=O)N[C@@H](CCCNC(=N)N)C(=O)N[C@@H](CCCNC(=N)N)C(=O)N[C@H](C(=O)N[C@@H](CCCCN)C(=O)O)CNC3=O`, for which the Activity in data set [5] is more than 50%. The Kd in data set [1] (read-out: Kd) stood at 1080 nM.

For the compound `CC[C@H](C)[C@@H]1NC(=O)[C@H](Cc2ccccc2)N(C)C(=O)c2cc3cc(c2)C(=O)NC[C@H](NC(=O)[C@@H](C)NC(=O)[C@H](C)NC(=O)[C@H](CCCNC(=N)N)NC(=O)[C@H](Cc2ccc4ccccc4c2)NC(=O)[C@H]2CCCCN2C(=O)[C@@H](CCC(=O)O)NC1=O)C(=O)N[C@@H](Cc1ccccc1)C(=O)N[C@@H](Cc1ccc2ccccc2c1)C(=O)N[C@@H](CCCNC(=N)N)C(=O)N[C@@H](CCCNC(=N)N)C(=O)N[C@@H](CCCNC(=N)N)C(=O)N[C@@H](CCCNC(=N)N)C(=O)N[C@H](C(=O)N[C@@H](CCCCN)C(=O)O)CNC3=O`, the Activity in data set [5] was more than 50%. Also, the Kd in data set [1] (read-out: Kd) was 1250 nM.

Take `C[C@@H]1NC(=O)[C@H](CCCNC(=N)N)NC(=O)[C@H](Cc2ccc3ccccc3c2)NC(=O)[C@H]2CCCCN2C(=O)[C@@H](CCC(=O)O)NC(=O)[C@H](Cc2cnc[nH]2)NC(=O)[C@H](c2ccccc2)NC(=O)c2cc3cc(c2)C(=O)NC[C@H](NC(=O)[C@@H](C)NC1=O)C(=O)N[C@@H](Cc1ccccc1)C(=O)N[C@@H](Cc1ccc2ccccc2c1)C(=O)N[C@@H](CCCNC(=N)N)C(=O)N[C@@H](CCCNC(=N)N)C(=O)N[C@@H](CCCNC(=N)N)C(=O)N[C@@H](CCCNC(=N)N)C(=O)N[C@H](C(=O)N[C@@H](CCCCN)C(=O)O)CNC3=O`: the Activity in data set [5] was more than 50%. For the same compound, in data set [1] (read-out: Kd), the Kd turned out to be 1470 nM.

In the case of `C[C@@H]1NC(=O)[C@H](CCCNC(=N)N)NC(=O)[C@H](Cc2ccc3ccccc3c2)NC(=O)[C@@H](C)NC(=O)[C@@H]([C@H](C)O)NC(=O)CN(C)C(=O)[C@@H](C)NC(=O)c2cc3cc(c2)C(=O)NC[C@H](NC(=O)[C@@H](C)NC1=O)C(=O)N[C@@H](Cc1ccccc1)C(=O)N[C@@H](Cc1ccc2ccccc2c1)C(=O)N[C@@H](CCCNC(=N)N)C(=O)N[C@@H](CCCNC(=N)N)C(=O)N[C@@H](CCCNC(=N)N)C(=O)N[C@@H](CCCNC(=N)N)C(=O)N[C@H](C(=O)N[C@@H](CCCCN)C(=O)O)CNC3=O`, the Kd result in data set [1] is given as “Not Active”. In the data set with HeLa [2], the Flu intensity is recorded as 8730. In the data set with HeLa [3], the IC50 result is given as “Not Active”. For the same compound, the “growth inhibition (GI)” value in the data set with HeLa [4] was “inactive”. Also, the inhibition entry in data set [6] was “inactive”.

For `C[C@@H]1NC(=O)[C@H](CCCNC(=N)N)NC(=O)[C@H](Cc2ccc3ccccc3c2)NC(=O)[C@H]2CCCCN2C(=O)[C@@H]([C@H](C)O)NC(=O)[C@H](Cc2ccc(F)cc2)NC(=O)[C@@H](Cc2ccccc2)NC(=O)c2cc3cc(c2)C(=O)NC[C@H](NC(=O)[C@@H](C)NC1=O)C(=O)N[C@@H](Cc1ccccc1)C(=O)N[C@@H](Cc1ccc2ccccc2c1)C(=O)N[C@@H](CCCNC(=N)N)C(=O)N[C@@H](CCCNC(=N)N)C(=O)N[C@@H](CCCNC(=N)N)C(=O)N[C@@H](CCCNC(=N)N)C(=O)N[C@H](C(=O)N[C@@H](CCCCN)C(=O)O)CNC3=O`, the Kd in data set [1] (read-out: Kd) is 670 nM.

Take `C[C@@H]1NC(=O)[C@H](CCCNC(=N)N)NC(=O)[C@H](Cc2ccc3ccccc3c2)NC(=O)[C@H]2CCCCN2C(=O)[C@@H]([C@H](C)O)NC(=O)[C@H](Cc2ccc(F)cc2)NC(=O)[C@@H](Cc2ccccc2)NC(=O)c2cc3cc(c2)C(=O)NC[C@H](NC(=O)[C@@H](Cc2ccccc2)NC1=O)C(=O)N[C@@H](CCCNC(=N)N)C(=O)N[C@@H](CCCNC(=N)N)C(=O)N[C@@H](CCCNC(=N)N)C(=O)N[C@@H](CCCNC(=N)N)C(=O)N[C@@H](Cc1ccc2ccccc2c1)C(=O)N[C@@H](Cc1ccccc1)C(=O)N[C@H](C(=O)N[C@@H](CCCCN)C(=O)O)CNC3=O`: the dissociation constant (Kd) in data set [1] (read-out: Kd) came to 980 nM.
